This assay deals with T1, GST-MCU (recombinant) (Homo sapiens, UniProt Q8NE86).
T1 construct: recombinant GST fusion
T1 sequence (Q8NE86 51-351): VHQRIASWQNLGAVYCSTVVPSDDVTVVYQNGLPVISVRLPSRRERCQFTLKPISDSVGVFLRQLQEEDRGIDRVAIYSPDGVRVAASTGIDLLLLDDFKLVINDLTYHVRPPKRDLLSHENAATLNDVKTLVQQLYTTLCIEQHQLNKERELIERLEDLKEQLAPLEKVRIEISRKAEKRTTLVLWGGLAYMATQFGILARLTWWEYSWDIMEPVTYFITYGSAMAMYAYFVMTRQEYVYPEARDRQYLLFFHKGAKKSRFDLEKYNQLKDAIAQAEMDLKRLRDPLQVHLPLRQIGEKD
Put plainly: in vitro biotin pull-down, immunoblot. Format: binding. The following applies: biotin-labelled compound 2 µg, 4 °C; competed by free berberine. On the technique in general: In western blotting, separated proteins are transferred to a membrane and probed.

Consider `COc1ccc2cc3[n+](cc2c1OC(=O)CCCCCNC(=O)CCCC[C@@H]1SC[C@@H]2NC(=O)N[C@@H]21)CCc1cc2c(cc1-3)OCO2` [Biotin-Berberine], for which the “in vitro biotin pull-down, immunoblot” value was “Biotin‐BBR directly binds to recombinant glutathione‐S‐transferase (GST)‐MCU”.

These data come from publication PMC12061237, “Berberine is a Novel Mitochondrial Calcium Uniporter Inhibitor that Disrupts MCU‐EMRE Assembly” (Advanced Science, 2025).
